Results published in ChEMBL document CHEMBL3044923, “Synthesis of 9-O-glycosyl-berberine derivatives and bioavailability evaluation” (Med Chem Res, 2012).

The molecules below were run on Rattus norvegicus (assay: Tmax in SPF Rattus norvegicus (rat) at 100 mg/kg, po). Conditions: in vivo.
Type: ADME, organism-based
Set-up: dose 100 mg/kg, route oral

Tmax [h] | Compound
3 | COc1ccc2cc3[n+](cc2c1OC[C@H](O)[C@H](O)CO)CCc1cc2c(cc1-3)OCO2 [9-O-ERYTHROL-BERBERINE]
3 | CCCCCCCCOc1c(OC)ccc2cc3[n+](cc12)CCc1cc2c(cc1-3)OCO2 [9-O-OCTYL-BERBERINE]
2 | COc1ccc2cc3[n+](cc2c1OC)CCc1cc2c(cc1-3)OCO2 [BERBERINE]

More lines, now with the values behind:

Compound | Tmax [h]
COc1ccc2cc3[n+](cc2c1OC1OC[C@@H](O)[C@@H](O)[C@@H]1O)CCc1cc2c(cc1-3)OCO2 (stereo partly drawn) [9-O-ARABINOSYL-BERBERINE] | 3
CCCCCCCCCCCCOc1c(OC)ccc2cc3[n+](cc12)CCc1cc2c(cc1-3)OCO2 [9-O-DODECYL-BERBERINE] | 3.5
COc1ccc2cc3[n+](cc2c1OC1O[C@H](CO)[C@@H](O)[C@H](O)[C@H]1O)CCc1cc2c(cc1-3)OCO2 (stereo partly drawn) [9-O-GLUCOSYL-BERBERINE] | 3

These molecules were tested on Rattus norvegicus (assay: Cmax in SPF Rattus norvegicus (rat) at 100 mg/kg, po). Conditions: in vivo.
Type: ADME, organism-based
Set-up: dose 100 mg/kg, route oral

Cmax [ng/mL] | Compound
37.5 | COc1ccc2cc3[n+](cc2c1OC[C@H](O)[C@H](O)CO)CCc1cc2c(cc1-3)OCO2 [9-O-ERYTHROL-BERBERINE]
4.39 | CCCCCCCCOc1c(OC)ccc2cc3[n+](cc12)CCc1cc2c(cc1-3)OCO2 [9-O-OCTYL-BERBERINE]
6.79 | COc1ccc2cc3[n+](cc2c1OC)CCc1cc2c(cc1-3)OCO2 [BERBERINE]

More lines, now with the values behind:

Compound | Cmax [ng/mL]
COc1ccc2cc3[n+](cc2c1OC1OC[C@@H](O)[C@@H](O)[C@@H]1O)CCc1cc2c(cc1-3)OCO2 (stereo partly drawn) [9-O-ARABINOSYL-BERBERINE] | 48.7
CCCCCCCCCCCCOc1c(OC)ccc2cc3[n+](cc12)CCc1cc2c(cc1-3)OCO2 [9-O-DODECYL-BERBERINE] | 3.71
COc1ccc2cc3[n+](cc2c1OC1O[C@H](CO)[C@@H](O)[C@H](O)[C@H]1O)CCc1cc2c(cc1-3)OCO2 (stereo partly drawn) [9-O-GLUCOSYL-BERBERINE] | 63.4

These molecules were tested on Rattus norvegicus (assay: AUC in SPF Rattus norvegicus (rat) at 100 mg/kg, po). Conditions: in vivo.
Type: ADME, organism-based, Plasma
Set-up: dose 100 mg/kg, route oral

AUC [µg·h/L] | Compound
180.316 | COc1ccc2cc3[n+](cc2c1OC[C@H](O)[C@H](O)CO)CCc1cc2c(cc1-3)OCO2 [9-O-ERYTHROL-BERBERINE]
17.329 | CCCCCCCCOc1c(OC)ccc2cc3[n+](cc12)CCc1cc2c(cc1-3)OCO2 [9-O-OCTYL-BERBERINE]
24.184 | COc1ccc2cc3[n+](cc2c1OC)CCc1cc2c(cc1-3)OCO2 [BERBERINE]

The next lines start with the molecule.

Compound | AUC [µg·h/L]
COc1ccc2cc3[n+](cc2c1OC1OC[C@@H](O)[C@@H](O)[C@@H]1O)CCc1cc2c(cc1-3)OCO2 (stereo partly drawn) [9-O-ARABINOSYL-BERBERINE] | 205.146
CCCCCCCCCCCCOc1c(OC)ccc2cc3[n+](cc12)CCc1cc2c(cc1-3)OCO2 [9-O-DODECYL-BERBERINE] | 14.592
COc1ccc2cc3[n+](cc2c1OC1O[C@H](CO)[C@@H](O)[C@H](O)[C@H]1O)CCc1cc2c(cc1-3)OCO2 (stereo partly drawn) [9-O-GLUCOSYL-BERBERINE] | 268.94

Each molecule was assayed on Rattus norvegicus (assay: Half life in SPF Rattus norvegicus (rat) at 100 mg/kg, po). Conditions: in vivo.
Type: ADME, organism-based
Set-up: dose 100 mg/kg, route oral

t1/2 [h] | Compound
7.31 | COc1ccc2cc3[n+](cc2c1OC[C@H](O)[C@H](O)CO)CCc1cc2c(cc1-3)OCO2 [9-O-ERYTHROL-BERBERINE]
7.85 | CCCCCCCCOc1c(OC)ccc2cc3[n+](cc12)CCc1cc2c(cc1-3)OCO2 [9-O-OCTYL-BERBERINE]
7.88 | COc1ccc2cc3[n+](cc2c1OC)CCc1cc2c(cc1-3)OCO2 [BERBERINE]

The remaining lines, values behind:

Compound | t1/2 [h]
COc1ccc2cc3[n+](cc2c1OC1OC[C@@H](O)[C@@H](O)[C@@H]1O)CCc1cc2c(cc1-3)OCO2 (stereo partly drawn) [9-O-ARABINOSYL-BERBERINE] | 7.43
CCCCCCCCCCCCOc1c(OC)ccc2cc3[n+](cc12)CCc1cc2c(cc1-3)OCO2 [9-O-DODECYL-BERBERINE] | 7.86
COc1ccc2cc3[n+](cc2c1OC1O[C@H](CO)[C@@H](O)[C@H](O)[C@H]1O)CCc1cc2c(cc1-3)OCO2 (stereo partly drawn) [9-O-GLUCOSYL-BERBERINE] | 7.58

The molecules below were run on Plasma (assay: Stability in SPF Rattus norvegicus (rat) plasma assessed as berberine formation at 100 mg/kg, po). Conditions: in vivo.
Type: ADME, organism-based
Set-up: dose 100 mg/kg, route oral

Compound | Stability
COc1ccc2cc3[n+](cc2c1OC1OC[C@@H](O)[C@@H](O)[C@@H]1O)CCc1cc2c(cc1-3)OCO2 (stereo partly drawn) [9-O-ARABINOSYL-BERBERINE] | Unstable
CCCCCCCCCCCCOc1c(OC)ccc2cc3[n+](cc12)CCc1cc2c(cc1-3)OCO2 [9-O-DODECYL-BERBERINE] | Stable
COc1ccc2cc3[n+](cc2c1OC[C@H](O)[C@H](O)CO)CCc1cc2c(cc1-3)OCO2 [9-O-ERYTHROL-BERBERINE] | Unstable
COc1ccc2cc3[n+](cc2c1OC1O[C@H](CO)[C@@H](O)[C@H](O)[C@H]1O)CCc1cc2c(cc1-3)OCO2 (stereo partly drawn) [9-O-GLUCOSYL-BERBERINE] | Unstable
